Experimental data from the NIST ThermoML archive (doi:10.1016/j.fluid.2015.07.012).

Experiment: xn = mol fraction of the nth substance listed
Conditions: Liquid; for viscosity: Capillary tube (Ostwald / Ubbelohde) method; for mass density: Vibrating tube method

CCO [ethanol] + O
Conditions	mass density, 10000 kPa [kg/m3]	mass density, 20000 kPa [kg/m3]	mass density, 30000 kPa [kg/m3]	mass density, 40000 kPa [kg/m3]	viscosity, 10000 kPa [mPa·s]	viscosity, 20000 kPa [mPa·s]	viscosity, 30000 kPa [mPa·s]	viscosity, 40000 kPa [mPa·s]
350.7 K, x1 = 0.1	933.68	936.77	941.46	945.15	0.537	0.546	0.556	0.578
350.7 K, x1 = 0.2	895.78	900.9	905.65	911.39	0.625	0.638	0.651	0.681
350.7 K, x1 = 0.3	863.89	870.14	876.58	881.9	0.632	0.661	0.684	0.726
350.7 K, x1 = 0.4	838.33	845.24	852.53	859.05	0.64	0.669	0.691	0.737
350.7 K, x1 = 0.6	798.55	807.87	815.61	822.93	0.595	0.624	0.654	0.695
350.7 K, x1 = 0.8	768.37	778.79	787.77	795.87	0.531	0.57	0.601	0.643
350.7 K, x1 = 1	745.63	757.47	766.87	775.75	0.461	0.518	0.555	0.59
373.2 K, x1 = 0.1	913.36	918.8	924.46	928.74	0.401	0.397	0.403	0.421
373.2 K, x1 = 0.2	874.72	880.64	886.74	892.24	0.448	0.449	0.459	0.483
373.2 K, x1 = 0.3	842.36	849.56	856.1	862.39	0.461	0.473	0.484	0.515
373.2 K, x1 = 0.4	815.79	823.45	830.81	837.9	0.462	0.477	0.489	0.509
373.2 K, x1 = 0.6	776.56	785.48	794.06	801.93	0.434	0.451	0.461	0.489
373.2 K, x1 = 0.8	747.1	757.25	767.44	776.49	0.381	0.406	0.439	0.456
373.2 K, x1 = 1	726.87	738.25	750.02	757.87	0.364	0.382	0.404	0.443
476.2 K, x1 = 0.1	802.54	810.76	819.25	827.58	0.148	0.152	0.159	0.164
476.2 K, x1 = 0.2	752.52	764.89	776.24	786.01	0.151	0.157	0.164	0.168
476.2 K, x1 = 0.3	713.85	728.6	743.62	754.08	0.144	0.153	0.164	0.172
476.2 K, x1 = 0.4	682.37	700.31	717.25	730.44	0.139	0.148	0.159	0.167
476.2 K, x1 = 0.6	636.05	658.71	679.71	694.35	0.125	0.138	0.15	0.161
476.2 K, x1 = 0.8	605.36	633.16	656.43	671.76	0.113	0.129	0.144	0.155
476.2 K, x1 = 1	582.85	613.37	638.82	656.07	0.107	0.123	0.138	0.151

CO [methanol] + O
Conditions	mass density, 10000 kPa [kg/m3]	mass density, 20000 kPa [kg/m3]	mass density, 30000 kPa [kg/m3]	mass density, 40000 kPa [kg/m3]	viscosity, 10000 kPa [mPa·s]	viscosity, 20000 kPa [mPa·s]	viscosity, 30000 kPa [mPa·s]	viscosity, 40000 kPa [mPa·s]
350.7 K, x1 = 0.1	945.55	949.82	954.11	958.39	0.448	0.454	0.458	0.473
350.7 K, x1 = 0.2	917.41	921.49	927.03	931.54	0.503	0.514	0.526	0.543
350.7 K, x1 = 0.3	889.97	895.56	901.14	906.05	0.514	0.528	0.542	0.558
350.7 K, x1 = 0.4	865.13	870.55	876.99	882.71	0.512	0.529	0.544	0.565
350.7 K, x1 = 0.6	819.84	827.75	835.46	842.38	0.449	0.47	0.494	0.519
350.7 K, x1 = 0.8	780.91	789.25	797.6	805.96	0.379	0.4	0.416	0.443
350.7 K, x1 = 1	–	–	–	–	0.298	0.313	0.331	0.351
373.2 K, x1 = 0.1	928.71	932.78	939.53	943.52	0.33	0.337	0.339	0.347
373.2 K, x1 = 0.2	900.41	904.78	911.46	914.74	0.358	0.368	0.372	0.382
373.2 K, x1 = 0.3	870.61	877.31	883.51	889.33	0.364	0.378	0.385	0.398
373.2 K, x1 = 0.4	845.4	851.97	858.91	864.81	0.36	0.375	0.382	0.399
373.2 K, x1 = 0.6	799.33	807.98	817.6	823.64	0.324	0.342	0.353	0.368
373.2 K, x1 = 0.8	758.8	770.24	780.53	789.08	0.276	0.294	0.307	0.326
373.2 K, x1 = 1	725.29	737.85	748.83	758.66	0.227	0.25	0.259	0.275
476.2 K, x1 = 0.1	822.65	831.4	838.61	845.82	0.141	0.144	0.148	0.151
476.2 K, x1 = 0.2	781.47	792.25	802.47	810.27	0.14	0.143	0.15	0.152
476.2 K, x1 = 0.3	746.74	760.72	772.18	780.67	0.136	0.144	0.146	0.152
476.2 K, x1 = 0.4	714.67	730.97	744.11	754.89	0.129	0.138	0.144	0.149
476.2 K, x1 = 0.6	664.45	685.36	703.08	715.13	0.115	0.123	0.131	0.14
476.2 K, x1 = 0.8	617.54	647.18	668.6	683.43	0.101	0.113	0.122	0.129
476.2 K, x1 = 1	576.84	612.56	636.82	655.67	0.088	0.1	0.109	0.116
